Experimental data reported in patent US20110160279A1, “METHODS FOR TREATMENT AND PREVENTION OF OTOTOXICITY BY siRNA” (BOARD OF TRUSTEES OF SOUTHERN ILLINOIS UNIVERSITY, priority 2007, published 2011).
“Also recorded” adds a separate entry of the source.

Key:
NADPH oxidase = conditions: 10 μM, cochlear extracts, Lucigenin probe
Experimental: In order to determine whether noise exposure increased the activity of NADPH oxidase in the chinchilla cochlea, a major source of reactive oxygen species (ROS), the activity of NADPH oxidase in cytosolic preparations from the cochlea was examined. The activity of NAD(P)H oxidase was determined using 50 μg protein from cochlear extracts incubated with 100 μM β-NAD(P)H in a total volume of 200 μl of Hank's HEPES buffer (pH 7.4). The assay was initiated by the addition of 50 μM N,N′-dimethyl-9,9′-biacridinium dinitrate (Lucigenin) (Sigma, St. Louis, Mo.) to the incubation mixture. Samples were counted immediately using a table top luminometer (Berthold Detection Systems FB Luminometer, Zylux Corp., Maryville, Tenn.) with sampling time every 6 sec. Samples were counted over a period of 5 min and the fluorescence recorded over 2 min of stable readings were averaged for that samples. Samples were run in duplicate and the NAD(P)H oxidase activity was normalized to the protein concentrations in each sample.

gp91 [1] = test: Real time RT-PCR of gp91 mRNA in UB/OC-1 cells; format: cell-based, mouse
Experimental: (§1) Immortalized organ of Corti cells derived from the mouse, UB/OC-1 cells, were obtained from Dr. Matthew Holley (Institute of Molecular Physiology, Addison Building, Western Bank, Sheffield, UK) and cultured in RPMI 1640 supplemented with 10% Fetalclone II (Hyclone, Logan, Utah) serum and penicillin-streptomycin. Cultures were grown in a 33° C. incubator in 10% CO2.
(§2) RNA was isolated by adding 1 ml TR1 reagent to 100 mg of cochlear or cortical tissue or 0.5 ml TR1 reagent (Sigma, St. Louis, Mo.) per well of each six well plate, according to the manufacturer's instructions.
(§3) Real time reverse transcriptase polymerase chain reaction (RT-PCR): One microgram of total RNA was converted to cDNA using iScript cDNA Synthesis Kit (Bio-Rad, Hercules, Calif.), and qRTPCR was performed as described by (Mukherjea et al, 2006). Gene specific primer pairs were used for the various reactions and mRNA expression levels were normalized to the levels of GAPDH house keeping gene.
(§4) The rodent set of primers and siRNA were based on the homologous sequences in the rat and mouse cDNA sequences. The primers were purchased from Sigma Genosys (St. Louis, Mo.). Purified siRNA duplexes were purchased from Qiagen (Valencia, Calif.).

UB-OC1 cells [2] = test: Cell viability and morphology of UB-OC1 cultures; format: cell-based, mouse
TRPV1 [3] = format: cell-based, mouse
Experimental: as §1
To further study the role of ROS generated via cochlear NADPH oxidases in the induction of TRPV1 in the cochlea, in vitro experiments were performed using the organ of Corti transformed hair cell line, UB/OC1 (Rivolta et al., Proc. R. Sco. Lond., 265, 1595-1603, 1998). […] Immunolabeling was quantitated by fluorescence imaging using a confocal microscope. […] The immunofluorescence in these groups was reduced by 60 and 70%, respectively (FIG. 2B). […] The increases in expression of these genes were inhibited by DPI (10 μM), indicative of a role or NADPH oxidase activity in the induction of these subunits (FIG. 2G).

Rac1 [4] = test: Real time RT-PCR of Rac1 mRNA in UB/OC-1 cells; format: cell-based, mouse
Experimental: as §1, §2, §3, §4

NOX3 mRNA [5] = test: Real time RT-PCR of NOX3 mRNA in UB/OC-1 cells; format: cell-based, mouse
Experimental: as §1, §2, §3, §4

Bax = Bax protein expression in UB/OC-1 cells; format: cell-based, mouse
Experimental: (§5) The increases in these proteins were attenuated by capsazepine (10 μM), implicating TRPV1 in this process.

UB-OC1 cells [6] = test: Apoptosis by TUNEL staining in UB-OC1 cells; format: cell-based, mouse; conditions: for apoptotic cells (TUNEL), of total cells: pretreated 30 min with TRPV1 inhibitor, then cisplatin 20 μM 24 h
Experimental: as §1
Frag-EL DNA fragmentation kit and H2DCFDA dye was purchased from (Calbiochem, San Diego, Calif.). TRPV1 antibody (Neuromics, Edina, Minn.) and secondary goat anti rabbit antibody was purchased from Santa Cruz Biotechnology (Santa Cruz, Calif.).
as §5

UB/OC-1 = test: Gentamicin-induced ROS generation by DCF2DA in UB/OC-1 cells; format: cell-based, mouse; conditions: capsazepine 10 μM or ruthenium red 20 μM for 15 min, then gentamicin (20 μM) 30 min
Experimental: FIG. 5 depicts that inhibition of TRPV1 reduces generation of reactive oxygen species (ROS) by aminoglycosides. UB/OC-1 cultures were pretreated with vehicle (control), capsazepine (10 μM) or ruthenium red (20 μM) for 15 min prior to the administration of vehicle (control) or gentamicin (20 μM) for 30 min and the generation of reactive oxygen species was determined by the fluorescence of 2′,7′-dichlorodihydrofluorescein diacetate (DCF2DA) using confocal microscopy.
In this study, the mouse organ of Corti cell line (UB/OC-1) was used to examine the properties of aminoglycoside-induced ROS generation. For these experiments, cells were grown on coverslips to 60-80% confluency, then pretreated with vehicle (control and gentamicin groups), capsazepine (10 μM) or ruthenium red (20 μM) for 15 min. This was followed by vehicle (control) or gentamicin for 30 min. Cells were then loaded with 2′,7′-dichlorodihydrofluorescein diacetate (DCF2DA) and imaged by confocal microscopy.

p53 = p53 protein expression in UB/OC-1 cells; format: cell-based, mouse
Experimental: as §5

TRPV1 [7] = test: TRPV1 immunoreactivity in rat cochlea sections; format: in vivo; conditions: 72 h following cisplatin 13 mg/kg i.p.; confocal microscopy
Experimental: Cochleae perfused with 4% paraformaldehyde were processed for decalcification and sectioning as described in (Dunaway et al., 2003). TRPV1-1 antibody was diluted 1:100 and samples were incubated for 1 h at 37° C. incubator. Secondary antibody used was goat anti-rabbit IgG conjugated to horse radish peroxidase (Santa Cruz Biotechnology, Inc, Santa Cruz, Calif.) which was diluted 1:200. ABC staining system (Santa Cruz Biotechnology), which included a diaminobenzadine as a peroxidase substrate, was used for visualization of protein expression. Slides were imaged using Scion Imaging system (Frederick, Md.).
Rats were tested for hearing loss 72 h later using auditory brainstem evoked responses (ABRs). […] Cochleas obtained from these animals were decalcified, sectioned and processed for TRPV1 immunoreactivity using a polyclonal antibody (as described in Puntambekar et al., 2005). Visualization by confocal microscopy indicated TRPV1 immunoreactivity in the organ of Corti, supporting cells and spiral ganglion cells. […] The increases were 18±1 and 15±3 at 48 h and 72 h, respectively (FIG. 1C).

outer hair cells = test: Outer hair cell loss by scanning electron microscopy; format: in vivo, rat; conditions: cisplatin 16 mg/kg i.p., vehicle-pretreated cochlea, 3 days, N=3
Experimental: Immediately after completion of follow-up ABRs, deeply sedated rats were euthanized, their cochleae harvested and processed as described in (Kamimura et al, 1999). Sputter coated cochleae were then viewed and photographed with a Hitachi S-500 scanning electron microscope (Hitachi Ltd., Tokyo, Japan).
Hair cell counts were performed using a modified version of the method used by (Korver et al. 2002). Two representative areas of the basal turn and hook portion were photographed. In each area, inner or outer hair cells were counted in an area that was 10 pillar cell heads in length.
The results were shown, as the average survival percentage rates compared to the control group. Statistical analysis was performed using Student's t-test.
Five rats were administered either vehicle or TRPV1 siRNA (3 μl) by round window application. The rats served as their own controls since one cochlea was treated with vehicle and the other with siRNA.

TRPV1 protein [8] = test: Western blot of TRPV1 protein in whole cochlear lysates; format: in vivo, rat; conditions: 72 h following cisplatin
From the text: Cochleae were homogenized in ice-cold TRIS 50:10:100. The whole tissue lysate was then used for Western blotting. After transfer to nitrocellulose membrane TRPV1 protein was visualized by chemiluminesence detection (ECL, Amersham, Piscataway, N.J.).

TRPV1 protein [9] = test: Western blot of TRPV1 protein in UB-OC1 cells; format: cell-based, mouse; conditions: cisplatin 2.5 μM
TRPV1 mRNA [10] = test: Real time RT-PCR of TRPV1 mRNA in rat cochlea; format: in vivo; conditions: rat cochlea
Experimental: (§6) Animal procedures and sample collection: Male Wistar rats were used for this study. Pre-ABR's were performed 2-3 days before round window application of siTRPV1 or PBS. […] The cochleas were dissected and used for the preparation of total RNA or total protein extracts, or perfused with 2.5% glutaraldehyde for morphological studies by Scanning Electron Microscopy (SEM's) or 4% paraformaldehyde for immunocytochemistry.
as §2, §3, §4

gp91 [11] = test: Real time RT-PCR of gp91 transcript in rat cochlea; format: in vivo; conditions: cisplatin (data not shown)
Experimental: as §2, §3
(§7) The rodent set of primers and siRNA were based on the homologous sequences in the rat and mouse cDNA sequences. The primers were purchased from Sigma Genosys (St. Louis, Mo.). Purified siRNA duplexes were purchased from Qiagen (Valencia, Calif.). Primers were as follows: Rodent NOX3 (sense): 5′-[…]-3′ (SEQ ID NO: 9) (antisense): 5′-[…]-3′ (SEQ ID NO: 10), Rodent-GAPDH (sense): 5′-[…]-3′ (SEQ ID NO: 11) (antisense): 5′-[…]-3′ (SEQ ID NO: 12), Rodent TRPV1 (sense): 5′-[…]-3′ (SEQ ID NO: 13), (antisense): 5-[…]-3′ (SEQ ID NO: 14), Rodent Rac-1 (sense): 5′-[…]-3′ (SEQ ID NO: 15), (antisense): 5′-[…]-3′ (SEQ ID NO: 16), Rodent gp-91 (sense) 5′-[…]-3′ (SEQ ID NO: 17), (antisense): 5′-[…]-3′ (SEQ ID NO: 18), and Rat p22 (sense): 5′-[…]-3′ (SEQ ID NO: 19), (antisense) 5′-[…]-3′ (SEQ ID NO: 20) […]

UB-OC1 cells [12] = test: Cisplatin-induced ROS generation by DCF2DA fluorescence in UB-OC1 cells; format: cell-based, mouse; conditions: cisplatin 2.5 μM, 30 minute
Rac1 [13] = test: Real time RT-PCR of Rac1 transcript in rat cochlea; format: in vivo; conditions: cisplatin (data not shown)
Experimental: as §2, §3, §7

UB/OC-1 cells = test: Intracellular Ca2+ with Fura4-AM in UB/OC-1 cells; format: cell-based, mouse; conditions: cisplatin
Experimental: as §5

p22 = test: Real time RT-PCR of p22 transcript in rat cochlea; format: in vivo; conditions: cisplatin (data not shown)
Experimental: as §2, §3, §7

TRPV1 mRNA [14] = test: Real time RT-PCR of TRPV1 mRNA in UB/OC-1 cells; format: cell-based, mouse; conditions: cisplatin 2.5 μM, 24 h
Experimental: as §1, §2, §3, §4

NOX3 mRNA [15] = test: Real time RT-PCR of NOX3 mRNA in rat cochlea; format: in vivo; conditions: cisplatin, 72 hrs
Experimental: as §6, §2, §3, §4

[16] = pretreatment (capsazepine 10 μM; BAPTA-AM 30 min) before cisplatin

**Q.** What does the source list for `c1ccc2c(c1)[I+]c1ccccc1-2` [DPI, diphenyleneiodonium]?
**A.** effect on NADPH oxidase activity (NADPH oxidase): blockade of enzyme activity; effect on cisplatin-induced increase in gp91 expression (gp91 [1]; DPI 10 μM): inhibited; effect on cell viability over a 24 h period (UB-OC1 cells [2]): did not significantly affect cell viability; reduction of TRPV1 immunofluorescence (TRPV1 [3]; pretreatment with 100 μM AEBSF or 10 μM DPI before cisplatin 2.5 μM): 70%; effect on cisplatin-induced increase in Rac1 expression (Rac1 [4]; DPI 10 μM): inhibited; effect on cisplatin-induced increase in NOX3 expression (NOX3 mRNA [5]; DPI 10 μM): inhibited

**Q.** Which results are given for `Oc1cc2c(cc1O)CN(C(=S)NCCc1ccc(Cl)cc1)CCC2` [capsazepine]?
**A.** effect on cisplatin-induced increase in Bax (Bax; [16]): attenuated; effect on cell apoptosis compared to vehicle-treated control (UB-OC1 cells [6]): Neither capsazepine nor ruthenium red alone had any significant effect; apoptotic cells (TUNEL), of total cells (UB-OC1 cells [6]): ~7%; effect on ROS generation of the gentamicin group (UB/OC-1): suppressed; effect on cisplatin-induced increase in p53 (p53; [16]): attenuated

**Q.** Which results are given for `N.N.[Cl][Pt][Cl]` [cisplatin]?
**A.** Bax protein (Bax; cisplatin, 24 hr): increases; elevation of TRPV1 immunoreactivity in hair cells and spiral ganglion cells (TRPV1 [7]): 2-3 fold; percentage of outer hair cell loss, base (outer hair cells): 42±9 percentage; percentage of outer hair cell loss, hook (outer hair cells): 72±14 percentage; percentage of outer hair cell loss, middle turn (outer hair cells): 22±2.7 percentage; TRPV1 protein (~95 kDa band) in whole cochlear lysates (TRPV1 protein [8]): increased TRPV1 protein; increase in TRPV1 protein by Western blotting (TRPV1 protein [9]): 90%±10%; increase in gp91 mRNA (gp91 [1]; cisplatin 2.5 μM): 2.8 fold; increase in TRPV1 transcripts (TRPV1 mRNA [10]; 24 h following cisplatin): 15±1 fold; increase in TRPV1 transcripts (TRPV1 mRNA [10]; 48 h following cisplatin): 18±1; increase in TRPV1 transcripts (TRPV1 mRNA [10]; 72 h following cisplatin): 15±3; level of induction of TRPV1 by cisplatin (TRPV1 mRNA [10]; lipoic acid experiment (FIG. 1D), 72 hrs): 5.5±1.5 fold; apoptotic cells (TUNEL) (UB-OC1 cells [6]; cisplatin 20 μM, 24 h): ~80%; increase in gp91 expression (gp91 [11]): 1000±102 fold; induction in TRPV1 immunoreactivity over control vehicle treated cells (TRPV1 [3]; cisplatin 2.5 μM, 24 h): 71±29%; ROS generation by DCF2DA fluorescence (UB-OC1 cells [12]): robust increase; increase in Rac1 expression (Rac1 [13]): 478±85 fold; intracellular Ca2+ (UB/OC-1 cells): increased intracellular Ca2+; increase in p22 expression (p22): 8±1 fold; increase in Rac1 mRNA (Rac1 [4]; cisplatin 2.5 μM): 2.1 fold; p53 protein (p53; cisplatin, 24 hr): increases; increase in NOX3 mRNA (NOX3 mRNA [5]; cisplatin 2.5 μM): 2.7 fold; change in TRPV1 mRNA (TRPV1 mRNA [14]): significant increase; also recorded: Three fold increase; change in NOX3 transcript in the cochlea (NOX3 mRNA [15]): small but statistically significant increase

**Q.** `N.N.N.N.N.N.N.N.N.N.N.N.N.N.[Cl-].[Cl-].[Cl-].[Cl-].[Cl-].[Cl-].[O-2].[O-2].[Ru+3].[Ru+3].[Ru+4]` [ruthenium red] was tested. Which “effect on cell apoptosis compared to vehicle-treated control” value (UB-OC1 cells [6]) did it give?
**A.** Neither capsazepine nor ruthenium red alone had any significant effect

**Q.** What about the “apoptotic cells (TUNEL), of total cells” value (UB-OC1 cells [6]) of the same compound?
**A.** ~7%

**Q.** What about the “effect on ROS generation of the gentamicin group” value (UB/OC-1) of the same compound?
**A.** suppressed
